Earlier results in patent US20110217337A1, “BIOACTIVE AGENT FOR BONE TISSUE ENGINEERING” (UNIVERSITY OF CONNECTICUT, priority 2010, published 2011).

Assays:
[1] = test system: osteoblast; conditions: cited from earlier work
[2] = test system: cAMP receptors; conditions: in vivo; cited from earlier work
[3] = test system: cell proliferation; conditions: cited from earlier work
[4] = test system: osteogenesis; conditions: via the PKA pathway; cited from earlier work
[5] = test system: bone formation; conditions: via the PKA pathway; cited from earlier work

Row | Structure (SMILES) | osteoblast proliferation [1] | activation of cAMP receptors [2] | cell proliferation [3] | in vitro osteogenesis [4] | in vivo bone formation [5]
1 | Nc1ncnc2c1nc(Br)n2[C@@H]1O[C@@H]2COP(=O)(O)O[C@H]2[C@H]1O [8-Br-cAMP] | inhibits osteoblast proliferation | – | – | – | –
2 | CCCC(=O)Nc1ncnc2c1ncn2[C@@H]1O[C@@H]2COP(=O)(O)O[C@H]2[C@H]1OC(=O)CCC [db-cAMP, N^6,2′-O-dibutyryladenosine-3′,5′-cyclic monophosphate] | – | activate all cAMP receptors non-specifically | inhibit cell proliferation | enhances | enhances
